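Values below derive from 48-hour exposures of cells grown in 96-well plates, with endpoints linearly interpolated between the two concentrations bracketing the appropriate inhibition level. At the GI50, growth is halved. TGI: total growth inhibition.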
Columns and labels:
Assay in all cases: NCI tumour cell line growth inhibition, 48 h
HS 578T breast = tested on: HS 578T breast
786-0 renal = tested on: 786-0 renal
U251 CNS = tested on: U251 CNS
HOP-62 NSCLC = tested on: HOP-62 NSCLC
SF-268 CNS = tested on: SF-268 CNS
OVCAR-4 ovarian = tested on: OVCAR-4 ovarian
OVCAR-5 ovarian = tested on: OVCAR-5 ovarian
IGROV1 ovarian = tested on: IGROV1 ovarian
RXF 393 renal = tested on: RXF 393 renal
SR leukemia = tested on: SR leukemia
MDA-MB-231 breast = tested on: MDA-MB-231 breast
SNB-75 CNS = tested on: SNB-75 CNS
A498 renal = tested on: A498 renal
NCI-H23 lung = tested on: NCI-H23 lung
SF-295 CNS = tested on: SF-295 CNS
HT29 colon = tested on: HT29 colon
MALME-3M melanoma = tested on: MALME-3M melanoma
ACHN renal = tested on: ACHN renal
DU-145 prostate = tested on: DU-145 prostate
SK-MEL-2 melanoma = tested on: SK-MEL-2 melanoma
LOX IMVI melanoma = tested on: LOX IMVI melanoma
UACC-257 melanoma = tested on: UACC-257 melanoma
HCC-2998 colon = tested on: HCC-2998 colon
SN12C renal = tested on: SN12C renal
SW-620 colon = tested on: SW-620 colon
CCRF-CEM leukemia = tested on: CCRF-CEM leukemia
KM12 colon = tested on: KM12 colon
HOP-92 NSCLC = tested on: HOP-92 NSCLC
PC-3 prostate = tested on: PC-3 prostate
MDA-MB-435 = tested on: MDA-MB-435
MCF7 breast = tested on: MCF7 breast
HCT-15 colon = tested on: HCT-15 colon
T-47D breast = tested on: T-47D breast
SK-OV-3 ovarian = tested on: SK-OV-3 ovarian
UACC-62 melanoma = tested on: UACC-62 melanoma
RPMI-8226 leukemia = tested on: RPMI-8226 leukemia
SF-539 CNS = tested on: SF-539 CNS
HCT-116 colon = tested on: HCT-116 colon
A549 NSCLC = tested on: A549 NSCLC
NCI/ADR-RES ovarian = tested on: NCI/ADR-RES ovarian
CAKI-1 renal = tested on: CAKI-1 renal
M14 melanoma = tested on: M14 melanoma
NCI-H460 lung = tested on: NCI-H460 lung
NCI-H522 lung = tested on: NCI-H522 lung
BT-549 breast = tested on: BT-549 breast
OVCAR-3 ovarian = tested on: OVCAR-3 ovarian
EKVX NSCLC = tested on: EKVX NSCLC
UO-31 renal = tested on: UO-31 renal
SK-MEL-28 melanoma = tested on: SK-MEL-28 melanoma
SK-MEL-5 melanoma = tested on: SK-MEL-5 melanoma
COLO 205 colon = tested on: COLO 205 colon

For `CCn1cc(CNc2ccc(C(=O)Nc3cc4cc(OC)c(OC)cc4c(C)n3)cc2)c(C)n1`, the GI50 (HS 578T breast) was 5320 nM, the TGI (HS 578T breast) was > 100000 nM and the GI50 (786-0 renal) was 28600 nM. For the same compound, the TGI (786-0 renal) was > 100000 nM, the GI50 (U251 CNS) was 3640 nM and the TGI (U251 CNS) was > 100000 nM. The GI50 (HOP-62 NSCLC) was 2710 nM, the TGI (HOP-62 NSCLC) was 7180 nM and the GI50 (SF-268 CNS) was 33600 nM. The TGI (SF-268 CNS) was > 100000 nM, the GI50 (OVCAR-4 ovarian) was 3070 nM and the TGI (OVCAR-4 ovarian) was > 100000 nM. The GI50 (OVCAR-5 ovarian) was > 100000 nM, the TGI (OVCAR-5 ovarian) was > 100000 nM and the GI50 (IGROV1 ovarian) was > 100000 nM. The TGI (IGROV1 ovarian) was > 100000 nM, the GI50 (RXF 393 renal) was > 100000 nM and the TGI (RXF 393 renal) was > 100000 nM. The GI50 (SR leukemia) was 2710 nM, the TGI (SR leukemia) was > 100000 nM and the GI50 (MDA-MB-231 breast) was > 100000 nM. For the same compound, the TGI (MDA-MB-231 breast) was > 100000 nM, the GI50 (SNB-75 CNS) was 4720 nM and the TGI (SNB-75 CNS) was > 100000 nM. The GI50 (A498 renal) was 4290 nM and the TGI (A498 renal) was > 100000 nM.
For `NCCCNc1nc2ccccc2c2c(=O)c3cc(F)ccc3sc12`, the GI50 (NCI-H23 lung) was 1640 nM, the TGI (NCI-H23 lung) was 3190 nM and the GI50 (SF-295 CNS) was 1760 nM. The TGI (SF-295 CNS) was 3210 nM, the GI50 (HT29 colon) was 1540 nM and the TGI (HT29 colon) was 3140 nM. It also gave a GI50 (MALME-3M melanoma) of 1710 nM, a TGI (MALME-3M melanoma) of 3220 nM and a GI50 (ACHN renal) of 1580 nM. The TGI (ACHN renal) was 2930 nM, the GI50 (DU-145 prostate) was 1730 nM and the TGI (DU-145 prostate) was 3210 nM. It also gave a GI50 (SK-MEL-2 melanoma) of 1750 nM, a TGI (SK-MEL-2 melanoma) of 3430 nM and a GI50 (LOX IMVI melanoma) of 1430 nM. The TGI (LOX IMVI melanoma) was 2830 nM, the GI50 (786-0 renal) was 1540 nM and the TGI (786-0 renal) was 3010 nM. The GI50 (UACC-257 melanoma) was 1790 nM, the TGI (UACC-257 melanoma) was 3810 nM and the GI50 (HCC-2998 colon) was 1640 nM. It also gave a TGI (HCC-2998 colon) of 3140 nM, a GI50 (SN12C renal) of 1480 nM and a TGI (SN12C renal) of 2930 nM. The GI50 (SW-620 colon) was 1640 nM, the TGI (SW-620 colon) was 3270 nM and the GI50 (CCRF-CEM leukemia) was 1810 nM. For the same compound, the TGI (CCRF-CEM leukemia) was 3720 nM, the GI50 (KM12 colon) was 1800 nM and the TGI (KM12 colon) was 3360 nM. For the same compound, the GI50 (HOP-92 NSCLC) was 1310 nM, the TGI (HOP-92 NSCLC) was 3330 nM and the GI50 (PC-3 prostate) was 1450 nM. It also gave a TGI (PC-3 prostate) of 2980 nM, a GI50 (MDA-MB-435) of 1750 nM and a TGI (MDA-MB-435) of 3270 nM. It also gave a GI50 (MCF7 breast) of 1400 nM, a TGI (MCF7 breast) of 2880 nM and a GI50 (U251 CNS) of 1640 nM. For the same compound, the TGI (U251 CNS) was 3250 nM, the GI50 (HCT-15 colon) was 1430 nM and the TGI (HCT-15 colon) was 2840 nM. The GI50 (HOP-62 NSCLC) was 1430 nM, the TGI (HOP-62 NSCLC) was 3150 nM and the GI50 (T-47D breast) was 1630 nM. It also gave a TGI (T-47D breast) of 3580 nM, a GI50 (SK-OV-3 ovarian) of 1560 nM and a TGI (SK-OV-3 ovarian) of 3310 nM. The GI50 (UACC-62 melanoma) was 1620 nM, the TGI (UACC-62 melanoma) was 3010 nM and the GI50 (RPMI-8226 leukemia) was 1770 nM. For the same compound, the TGI (RPMI-8226 leukemia) was 3650 nM, the GI50 (SF-539 CNS) was 1710 nM and the TGI (SF-539 CNS) was 3100 nM. The GI50 (SF-268 CNS) was 1450 nM, the TGI (SF-268 CNS) was 3120 nM and the GI50 (HCT-116 colon) was 1430 nM. It also gave a TGI (HCT-116 colon) of 2770 nM, a GI50 (OVCAR-4 ovarian) of 1750 nM and a TGI (OVCAR-4 ovarian) of 3400 nM. The GI50 (A549 NSCLC) was 1590 nM, the TGI (A549 NSCLC) was 3480 nM and the GI50 (NCI/ADR-RES ovarian) was 1700 nM. For the same compound, the TGI (NCI/ADR-RES ovarian) was 3360 nM, the GI50 (CAKI-1 renal) was 1410 nM and the TGI (CAKI-1 renal) was 2750 nM. The GI50 (OVCAR-5 ovarian) was 1610 nM, the TGI (OVCAR-5 ovarian) was 3050 nM and the GI50 (M14 melanoma) was 1690 nM. For the same compound, the TGI (M14 melanoma) was 3110 nM, the GI50 (NCI-H460 lung) was 1650 nM and the TGI (NCI-H460 lung) was 3220 nM. For the same compound, the GI50 (NCI-H522 lung) was 1640 nM, the TGI (NCI-H522 lung) was 3450 nM and the GI50 (BT-549 breast) was 1510 nM. The TGI (BT-549 breast) was 2960 nM, the GI50 (OVCAR-3 ovarian) was 1700 nM and the TGI (OVCAR-3 ovarian) was 3250 nM. The GI50 (EKVX NSCLC) was 1570 nM, the TGI (EKVX NSCLC) was 3010 nM and the GI50 (UO-31 renal) was 1270 nM. It also gave a TGI (UO-31 renal) of 2570 nM, a GI50 (IGROV1 ovarian) of 1420 nM and a TGI (IGROV1 ovarian) of 2900 nM. For the same compound, the GI50 (RXF 393 renal) was 1420 nM, the TGI (RXF 393 renal) was 2740 nM and the GI50 (SK-MEL-28 melanoma) was 1790 nM. The TGI (SK-MEL-28 melanoma) was 3240 nM, the GI50 (SK-MEL-5 melanoma) was 1730 nM and the TGI (SK-MEL-5 melanoma) was 3130 nM. It also gave a GI50 (SR leukemia) of 1480 nM, a TGI (SR leukemia) of 4090 nM and a GI50 (COLO 205 colon) of 1690 nM. The TGI (COLO 205 colon) was 3480 nM, the GI50 (MDA-MB-231 breast) was 1450 nM and the TGI (MDA-MB-231 breast) was 2900 nM. The GI50 (SNB-75 CNS) was 1310 nM, the TGI (SNB-75 CNS) was 2640 nM and the GI50 (A498 renal) was 1480 nM. It also gave a TGI (A498 renal) of 3360 nM.

Source: PubChem BioAssay (NCI)
